Laboratory results taken from patent US20240409585A1, “MACROCYCLIC IMMUNOMODULATORS” (priority 2021, published 2024).
Numbered stars: 1 amine (or outer) side, 2 acyl side, 3 side chain; on linkers, the order of the positions; unused ones are H or OH. Bridge positions count the residues as written; N and C are the ends. Square brackets hold non-standard residues; d marks the D form. Peptide text beside a SMILES is read from it. * marks the point of attachment. ξ: configuration not given here. X22 = NC(=O)c1cccc(-c2ccc(C[C@H](N[*:1])C(=O)[*:2])cc2)c1; Phe(4-(4-F-Ph)) = N[C@@H](Cc1ccc(-c2ccc(F)cc2)cc1)C(=O)O; Bip = N[C@@H](Cc1ccc(-c2ccccc2)cc1)C(=O)O; Phe(2-Br) = N[C@@H](Cc1ccccc1Br)C(=O)O; Phe(3-Me) = Cc1cccc(C[C@H](N)C(=O)O)c1; NMeY = CN[C@@H](Cc1ccc(O)cc1)C(=O)O; Val(3-OH) = CC(C)(O)[C@H](N)C(=O)O; 4Pal = N[C@@H](Cc1ccncc1)C(=O)O; pS = N[C@@H](COP(=O)(O)O)C(=O)O; Cha = N[C@@H](CC1CCCCC1)C(=O)O; NMeOrn = CN[C@@H](CCCN)C(=O)O; NMeAbu = CC[C@H](NC)C(=O)O; ξTle = CC(C)(C)C(N)C(=O)O; Carboxymethyl = O=C(O)C*; NMeA = CN[C@@H](C)C(=O)O; Nle = CCCC[C@H](N)C(=O)O; Dab = NCC[C@H](N)C(=O)O

Each compound was assayed against T1, PE-labeled human PD-L1-Ig binding to Jurkat cell line over-expressing human PD-1 (Jurkat-PD-1) (Homo sapiens, UniProt Q15116) (assay: Jurkat-PD-1 Cell Binding High-Content Screening Assay (CBA): Method 1). Conditions: Jurkat-hPD-1 cells, PE-labeled PD-L1-Ig 20 nM final; read-out: Jurkat HPDL1 PD1 IC50 (uM) (Method 1).
T1 construct: expressed in transfected cells; host or cells: Jurkat
T1 sequence (Q15116 25-288): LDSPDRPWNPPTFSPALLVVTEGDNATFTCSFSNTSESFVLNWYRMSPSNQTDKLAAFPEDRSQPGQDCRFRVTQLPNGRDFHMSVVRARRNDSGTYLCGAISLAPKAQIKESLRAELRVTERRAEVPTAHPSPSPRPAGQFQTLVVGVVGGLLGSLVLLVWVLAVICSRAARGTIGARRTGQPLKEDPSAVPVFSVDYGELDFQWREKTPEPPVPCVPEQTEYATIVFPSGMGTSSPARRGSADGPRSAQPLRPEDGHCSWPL

SMILES | IC50
CC(C)C[C@@H]1NC(=O)[C@H](Cc2c[nH]c3ccccc23)NC(=O)[C@H](CC(=O)O)NC(=O)[C@H](Cc2ccc(O)cc2)NC(=O)[C@H](Cc2ccccc2)NC(=O)CSC[C@@H](C(=O)NCC(N)=O)NC(=O)[C@H](CO)NC(=O)[C@H](C(C)C)NC(=O)[C@H](CC(C)C)NC(=O)[C@H](CC(N)=O)NC(=O)[C@@H](CO)NC(=O)[C@H](C)N(C)C(=O)[C@H](C(C)C)NC(=O)[C@H](Cc2ccc(-c3ccccc3)cc2)NC1=O [Compound 1819] ({CH2CO}-FYDWL[Bip]V[NMeA][dS]NLVSCG-NH2; thioether N-14) | 0.43 µM
CC(C)C[C@@H]1NC(=O)[C@H](Cc2c[nH]c3ccccc23)NC(=O)[C@H](CC(=O)O)NC(=O)[C@H](Cc2ccc(O)cc2)NC(=O)[C@H](Cc2ccccc2)NC(=O)CSC[C@@H](C(=O)N[C@@H](C)C(N)=O)NC(=O)[C@H](CO)NC(=O)[C@H](C(C)C)NC(=O)[C@H](CC(C)C)NC(=O)[C@H](CC(N)=O)NC(=O)[C@@H](CCC(=O)O)NC(=O)[C@H](C)N(C)C(=O)[C@H](C(C)C)NC(=O)[C@H](Cc2ccc(-c3ccccc3)cc2)NC1=O [Compound 1820] ({CH2CO}-FYDWL[Bip]V[NMeA][dE]NLVSCA-NH2; thioether N-14) | 0.48 µM
CC(C)C[C@@H]1NC(=O)[C@H](Cc2c[nH]c3ccccc23)NC(=O)[C@H](COP(=O)(O)O)NC(=O)[C@H](Cc2ccc(O)cc2)NC(=O)[C@H](Cc2ccccc2)NC(=O)CSC[C@@H](C(=O)N[C@@H](C)C(N)=O)NC(=O)[C@H](CO)NC(=O)[C@H](C(C)C)NC(=O)[C@H](CC(C)C)NC(=O)[C@H](CC(N)=O)NC(=O)[C@@H](C)NC(=O)[C@H](C)N(C)C(=O)[C@H](C(C)C)NC(=O)[C@H](Cc2ccc(-c3ccccc3)cc2)NC1=O [Compound 1821] ({CH2CO}-FY[pS]WL[Bip]V[NMeA][dA]NLVSCA-NH2; thioether N-14) | 0.49 µM
CC(C)C[C@@H]1NC(=O)[C@H](Cc2c[nH]c3ccccc23)NC(=O)[C@H](CC(=O)O)NC(=O)[C@H](Cc2ccc(O)cc2)NC(=O)[C@H](CC(N)=O)NC(=O)CSC[C@@H](C(=O)NCC(N)=O)NC(=O)[C@H](CO)NC(=O)[C@H](C(C)C)NC(=O)[C@H](CC(C)C)NC(=O)[C@H](CC(N)=O)NC(=O)[C@H](CC(N)=O)NC(=O)[C@H](C)N(C)C(=O)[C@H](C(C)C)NC(=O)[C@H](Cc2ccc(-c3ccccc3)cc2)NC1=O [Compound 1822] ({CH2CO}-NYDWL[Bip]V[NMeA]NNLVSCG-NH2; thioether N-14) | 0.58 µM
CC(C)C[C@@H]1NC(=O)[C@H](Cc2c[nH]c3ccccc23)NC(=O)[C@H](CC(=O)O)NC(=O)[C@H](Cc2ccccc2Br)NC(=O)[C@H](Cc2ccccc2)NC(=O)CSC[C@@H](C(=O)N[C@@H](C)C(N)=O)NC(=O)[C@H](CO)NC(=O)[C@H](C(C)C)NC(=O)[C@H](CC(C)C)NC(=O)[C@H](CC(N)=O)NC(=O)[C@@H](C)NC(=O)[C@H](C)N(C)C(=O)[C@H](C(C)C)NC(=O)[C@H](Cc2ccc(-c3ccccc3)cc2)NC1=O [Compound 1823] ({CH2CO}-F[Phe(2-Br)]DWL[Bip]V[NMeA][dA]NLVSCA-NH2; thioether N-14) | 0.6 µM
CC(C)C[C@@H]1NC(=O)[C@H](Cc2c[nH]c3ccccc23)NC(=O)[C@H](CC(=O)O)NC(=O)[C@H](Cc2ccc(O)cc2)NC(=O)[C@H](Cc2ccccc2)NC(=O)CSC[C@@H](C(=O)NCC(N)=O)NC(=O)[C@H](CO)NC(=O)[C@H](C(C)C)NC(=O)[C@H](CC(C)C)NC(=O)[C@H](CC(=O)O)NC(=O)[C@H](CC(C)C)NC(=O)[C@H](C)N(C)C(=O)[C@H](C(C)C)NC(=O)[C@H](Cc2ccc(-c3ccccc3)cc2)NC1=O [Compound 1824] ({CH2CO}-FYDWL[Bip]V[NMeA]LDLVSCG-NH2; thioether N-14) | 0.63 µM
CC(C)C[C@@H]1NC(=O)[C@H](Cc2c[nH]c3ccccc23)NC(=O)[C@H](CC(=O)O)NC(=O)[C@H](Cc2ccc(O)cc2)NC(=O)[C@H](Cc2ccccc2)NC(=O)CSC[C@@H](C(=O)N[C@@H](C)C(N)=O)NC(=O)[C@H](CO)NC(=O)[C@H](C(C)C)NC(=O)[C@H](CC(C)C)NC(=O)[C@H](CC(=O)O)NC(=O)[C@@H](C)NC(=O)[C@H](C)N(C)C(=O)[C@H](C(C)C)NC(=O)[C@H](Cc2ccc(-c3ccc(F)cc3)cc2)NC1=O [Compound 1825] ({CH2CO}-FYDWL[Phe(4-(4-F-Ph))]V[NMeA][dA]DLVSCA-NH2; thioether N-14) | 0.66 µM
CC(C)C[C@@H]1NC(=O)[C@H](Cc2c[nH]c3ccccc23)NC(=O)[C@H](CC(=O)O)NC(=O)[C@H](Cc2ccc(O)cc2)NC(=O)[C@H](Cc2ccccc2)NC(=O)CSC[C@@H](C(=O)NCC(N)=O)NC(=O)[C@H](CO)NC(=O)[C@H](C(C)C)NC(=O)[C@H](CC(C)C)NC(=O)[C@H](CC(=O)O)NC(=O)[C@H](CCCCN)NC(=O)[C@H](C)N(C)C(=O)[C@H](C(C)C)NC(=O)[C@H](Cc2ccc(-c3ccccc3)cc2)NC1=O [Compound 1826] ({CH2CO}-FYDWL[Bip]V[NMeA]KDLVSCG-NH2; thioether N-14) | 0.76 µM
CC(C)C[C@@H]1NC(=O)[C@H](Cc2c[nH]c3ccccc23)NC(=O)[C@H](CC(=O)O)NC(=O)[C@H](Cc2ccc(O)cc2)NC(=O)[C@H](Cc2ccccc2)NC(=O)CSC[C@@H](C(=O)N[C@@H](C)C(N)=O)NC(=O)[C@H](CO)NC(=O)[C@H](C(C)C)NC(=O)[C@H](CC(C)C)NC(=O)[C@H](CC(=O)O)NC(=O)C(C(C)(C)C)NC(=O)[C@H](C)N(C)C(=O)[C@H](C(C)C)NC(=O)[C@H](Cc2ccc(-c3ccccc3)cc2)NC1=O (stereo partly drawn) [Compound 1827] ({CH2CO}-FYDWL[Bip]V[NMeA][ξTle]DLVSCA-NH2; thioether N-14) | 0.79 µM

Continued, values first:

IC50 | SMILES
0.82 µM | CCCC[C@@H]1NC(=O)CSC[C@@H](C(=O)NCC(N)=O)NC(=O)[C@H](CO)NC(=O)[C@H](C(C)C)NC(=O)[C@H](CC(C)C)NC(=O)[C@H](CC(=O)O)NC(=O)[C@H](CC(N)=O)NC(=O)[C@H](C)N(C)C(=O)[C@H](C(C)C)NC(=O)[C@H](Cc2ccc(-c3ccccc3)cc2)NC(=O)[C@H](CC(C)C)NC(=O)[C@H](Cc2c[nH]c3ccccc23)NC(=O)[C@H](CC(=O)O)NC(=O)[C@H](Cc2ccc(O)cc2)NC1=O [Compound 1828] ({CH2CO}-[Nle]YDWL[Bip]V[NMeA]NDLVSCG-NH2; thioether N-14)
0.85 µM | CC(C)C[C@@H]1NC(=O)[C@H](Cc2c[nH]c3ccccc23)NC(=O)[C@H](CC(=O)O)NC(=O)[C@H](Cc2ccc(O)cc2)NC(=O)[C@H](Cc2ccccc2)NC(=O)CSC[C@@H](C(=O)NCC(N)=O)NC(=O)[C@H](CO)NC(=O)[C@H](C(C)C)NC(=O)[C@H](CC(C)C)NC(=O)[C@H](CC(=O)O)NC(=O)[C@@H](CC(=O)O)NC(=O)[C@H](C)N(C)C(=O)[C@H](C(C)C)NC(=O)[C@H](Cc2ccc(-c3ccccc3)cc2)NC1=O [Compound 1829] ({CH2CO}-FYDWL[Bip]V[NMeA][dD]DLVSCG-NH2; thioether N-14)
0.9 µM | CC(C)C[C@@H]1NC(=O)[C@H](Cc2c[nH]c3ccccc23)NC(=O)[C@H](CC(=O)O)NC(=O)[C@H](Cc2ccc(O)cc2)NC(=O)[C@H](Cc2ccccc2)NC(=O)CSC[C@@H](C(=O)N[C@@H](C)C(N)=O)NC(=O)[C@H](CO)NC(=O)[C@H](C(C)C)NC(=O)[C@H](CC(C)C)NC(=O)[C@H](CC(=O)O)NC(=O)[C@@H](C)NC(=O)[C@H](C)N(C)C(=O)[C@H](C(C)C)NC(=O)[C@H](Cc2ccc(-c3cccc(C(N)=O)c3)cc2)NC1=O [Compound 1830] ({CH2CO}-FYDWL[X22]V[NMeA][dA]DLVSCA-NH2; thioether N-14)
0.11 µM | Cc1cccc(C[C@@H]2NC(=O)[C@H](CC(=O)O)NC(=O)[C@H](Cc3ccc(OCC(=O)O)cc3)NC(=O)[C@H](Cc3ccncc3)NC(=O)CSC[C@@H](C(=O)N[C@@H](CCN)C(N)=O)NC(=O)[C@H](CO)NC(=O)[C@H](C(C)(C)O)NC(=O)[C@H](CC3CCCCC3)NC(=O)[C@H](CCN)NC(=O)[C@@H](CC(C)C)NC(=O)[C@H](Cc3ccc(O)cc3)N(C)C(=O)[C@H](Cc3ccc(OCC(=O)O)cc3)NC(=O)[C@H](Cc3ccc(-c4ccccc4)cc3)NC(=O)[C@H](Cc3ccc(OCC(=O)O)cc3)NC2=O)c1 [Compound 1835] ({CH2CO}-[4Pal]Y(Carboxymethyl)D[Phe(3-Me)]Y(Carboxymethyl)[Bip]Y(Carboxymethyl)[NMeY][dL][Dab][Cha][Val(3-OH)]SC[Dab]-NH2; thioether N-14)
0.67 µM | Cc1cccc(C[C@@H]2NC(=O)[C@H](CC(=O)O)NC(=O)[C@H](Cc3ccc(OCC(=O)O)cc3)NC(=O)[C@H](Cc3ccncc3)NC(=O)CSC[C@@H](C(=O)N[C@@H](CCN)C(N)=O)NC(=O)[C@H](CO)NC(=O)[C@H](C(C)(C)O)NC(=O)[C@H](CC3CCCCC3)NC(=O)[C@H](CCN)NC(=O)[C@@H](CC(C)C)NC(=O)[C@H](CCCN)N(C)C(=O)[C@H](Cc3ccc(OCC(=O)O)cc3)NC(=O)[C@H](Cc3ccc(-c4ccccc4)cc3)NC(=O)[C@H](Cc3ccc(OCC(=O)O)cc3)NC2=O)c1 [Compound 1836] ({CH2CO}-[4Pal]Y(Carboxymethyl)D[Phe(3-Me)]Y(Carboxymethyl)[Bip]Y(Carboxymethyl)[NMeOrn][dL][Dab][Cha][Val(3-OH)]SC[Dab]-NH2; thioether N-14)
0.47 µM | CC[C@H]1C(=O)N[C@H](CC(C)C)C(=O)N[C@@H](CCN)C(=O)N[C@@H](CC2CCCCC2)C(=O)N[C@@H](C(C)(C)O)C(=O)N[C@@H](CO)C(=O)N[C@H](C(=O)N[C@@H](CCN)C(N)=O)CSCC(=O)N[C@@H](Cc2ccncc2)C(=O)N[C@@H](Cc2ccc(OCC(=O)O)cc2)C(=O)N[C@@H](CC(=O)O)C(=O)N[C@@H](Cc2cccc(C)c2)C(=O)N[C@@H](Cc2ccc(OCC(=O)O)cc2)C(=O)N[C@@H](Cc2ccc(-c3ccccc3)cc2)C(=O)N[C@@H](Cc2ccc(OCC(=O)O)cc2)C(=O)N1C [Compound 1837] ({CH2CO}-[4Pal]Y(Carboxymethyl)D[Phe(3-Me)]Y(Carboxymethyl)[Bip]Y(Carboxymethyl)[NMeAbu][dL][Dab][Cha][Val(3-OH)]SC[Dab]-NH2; thioether N-14)
